Experiments:
[1] = target: T1, ATGL (Homo sapiens, UniProt Q96AD5); conditions: expressed ATGL or native ATGL in hepatocytes; cited from earlier work
T1 sequence (Q96AD5 1-504): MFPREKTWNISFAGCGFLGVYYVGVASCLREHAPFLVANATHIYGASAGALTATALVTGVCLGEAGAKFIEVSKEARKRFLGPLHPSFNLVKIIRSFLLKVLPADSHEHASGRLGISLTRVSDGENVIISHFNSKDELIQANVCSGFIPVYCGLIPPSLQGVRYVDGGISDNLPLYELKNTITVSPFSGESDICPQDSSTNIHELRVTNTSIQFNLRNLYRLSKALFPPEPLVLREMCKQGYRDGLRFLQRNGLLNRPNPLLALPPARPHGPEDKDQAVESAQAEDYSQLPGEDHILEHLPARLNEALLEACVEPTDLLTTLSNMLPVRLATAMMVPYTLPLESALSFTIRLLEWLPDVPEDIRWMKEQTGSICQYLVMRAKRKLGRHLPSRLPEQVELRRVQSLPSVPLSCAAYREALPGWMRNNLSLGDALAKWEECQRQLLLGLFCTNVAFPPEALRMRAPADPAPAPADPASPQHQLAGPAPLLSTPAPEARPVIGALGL

[2] = target: T2, iPLA2β (Homo sapiens, UniProt O60733); conditions: cited from earlier work
T2 sequence (O60733 1-806): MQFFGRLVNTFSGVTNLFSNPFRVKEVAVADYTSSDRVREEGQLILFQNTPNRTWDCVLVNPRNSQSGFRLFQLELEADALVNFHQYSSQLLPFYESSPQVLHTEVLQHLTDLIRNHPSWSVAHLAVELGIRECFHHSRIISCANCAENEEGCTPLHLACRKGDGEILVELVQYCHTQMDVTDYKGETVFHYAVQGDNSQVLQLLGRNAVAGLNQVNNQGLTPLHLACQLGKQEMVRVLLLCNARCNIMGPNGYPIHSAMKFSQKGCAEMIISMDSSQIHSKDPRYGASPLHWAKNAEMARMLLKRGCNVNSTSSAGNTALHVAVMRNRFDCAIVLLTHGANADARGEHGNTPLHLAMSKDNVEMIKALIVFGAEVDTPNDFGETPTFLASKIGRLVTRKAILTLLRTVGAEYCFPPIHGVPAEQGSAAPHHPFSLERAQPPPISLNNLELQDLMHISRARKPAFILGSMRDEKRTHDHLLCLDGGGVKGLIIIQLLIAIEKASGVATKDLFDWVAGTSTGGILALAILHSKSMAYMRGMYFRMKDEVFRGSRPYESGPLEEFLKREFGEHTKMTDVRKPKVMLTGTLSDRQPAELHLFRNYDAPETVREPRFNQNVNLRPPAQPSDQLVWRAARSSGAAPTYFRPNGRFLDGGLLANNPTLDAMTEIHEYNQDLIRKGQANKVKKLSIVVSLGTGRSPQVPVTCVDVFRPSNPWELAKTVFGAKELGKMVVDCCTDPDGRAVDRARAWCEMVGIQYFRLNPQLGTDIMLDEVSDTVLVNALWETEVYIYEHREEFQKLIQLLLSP

[3] = target: T3, iPLA2γ (Homo sapiens, UniProt Q9NP80); conditions: cited from earlier work
T3 sequence (Q9NP80 1-782): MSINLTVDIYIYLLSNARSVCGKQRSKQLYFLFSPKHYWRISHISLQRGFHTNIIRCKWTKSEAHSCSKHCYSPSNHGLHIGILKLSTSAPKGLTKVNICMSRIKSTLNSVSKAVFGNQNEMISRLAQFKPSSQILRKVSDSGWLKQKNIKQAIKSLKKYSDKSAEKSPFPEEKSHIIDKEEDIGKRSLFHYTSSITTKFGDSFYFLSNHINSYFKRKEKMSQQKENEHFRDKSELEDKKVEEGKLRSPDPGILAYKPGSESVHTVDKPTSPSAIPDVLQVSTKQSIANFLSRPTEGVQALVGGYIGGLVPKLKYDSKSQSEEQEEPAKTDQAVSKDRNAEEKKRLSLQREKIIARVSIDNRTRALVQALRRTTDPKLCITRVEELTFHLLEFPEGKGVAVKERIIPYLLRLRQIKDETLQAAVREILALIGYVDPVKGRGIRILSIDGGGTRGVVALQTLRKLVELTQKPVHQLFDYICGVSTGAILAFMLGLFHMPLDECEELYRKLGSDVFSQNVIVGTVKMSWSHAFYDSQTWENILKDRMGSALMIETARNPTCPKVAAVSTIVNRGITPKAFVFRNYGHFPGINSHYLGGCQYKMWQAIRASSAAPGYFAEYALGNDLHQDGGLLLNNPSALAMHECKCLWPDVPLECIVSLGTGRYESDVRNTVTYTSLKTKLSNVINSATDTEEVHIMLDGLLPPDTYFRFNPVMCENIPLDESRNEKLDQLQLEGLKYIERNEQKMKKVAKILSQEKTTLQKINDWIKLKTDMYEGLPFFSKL

[4] = target: T4, ATGL (Mus musculus, UniProt Q8BJ56); assay: Lipase assay (triglyceride hydrolase assay) with candidate inhibitors; format: biochemical; conditions: versus control (DMSO), FIG. 9
T4 construct: The lipid-free infranatant (cytosolic fraction) was collected and, used for triacyl-glycerol (TG) hydrolase assays; from tissue; host or cells: mouse white adipose tissue, cytosolic fraction (100,000 g infranatant)
T4 sequence (Q8BJ56 1-486): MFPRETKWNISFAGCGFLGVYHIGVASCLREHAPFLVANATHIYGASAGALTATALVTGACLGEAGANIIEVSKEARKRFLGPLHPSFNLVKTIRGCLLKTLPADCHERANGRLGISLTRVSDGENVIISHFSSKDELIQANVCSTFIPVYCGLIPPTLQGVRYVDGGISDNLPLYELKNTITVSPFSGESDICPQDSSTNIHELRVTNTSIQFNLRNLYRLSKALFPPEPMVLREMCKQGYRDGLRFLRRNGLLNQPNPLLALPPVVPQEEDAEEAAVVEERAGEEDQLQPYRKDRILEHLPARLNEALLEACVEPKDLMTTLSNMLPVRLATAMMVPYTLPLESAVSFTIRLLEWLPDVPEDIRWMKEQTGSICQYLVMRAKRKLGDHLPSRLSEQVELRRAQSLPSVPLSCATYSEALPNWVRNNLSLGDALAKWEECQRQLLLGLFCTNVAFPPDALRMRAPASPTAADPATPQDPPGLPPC
Description: Mesenteric, retroperitoneal, omental and, gonadal white adipose tissues (WAT) of wild-type (wt), Adipose Tri-Glyceride Lipase-knockout (ATGL-ko) and, Hormone Sensitive Lipase-knockout (HSL-ko) mice were removed surgically and, washed in phosphate-buffered saline (PBS) containing 1 mM ethylenediaminetetraacetic-acid (EDTA). The tissue was homogenized in lysis buffer (0.25 M sucrose, 1 mM EDTA, 1 mM dithiothreitol, 20 μg/ml leupeptin, 2 μg/ml antipain, 1 μg/ml pepstatin, pH 7.0) using a Magna Lyser (Roche diagnostics GmbH, Mannheim, Germany). The WAT lysate was centrifuged at 100,000 g for 1 hour (h) at 4° C. The lipid-free infranatant (cytosolic fraction) was collected and, used for triacyl-glycerol (TG) hydrolase assays. The substrate for the measurement of lipase activity containing triolein and [9, 10-3H(N)-triolein] (NEN Life Science Products, Boston, Mass.) as radioactive tracer was emulsified with phosphatidylcholine/phosphatidylinositol using a conventional ultrasound sonicator. The cytosolic fractions supplemented with or, without a specific inhibitor for HSL were incubated at 37° C. for 60 min under constant shaking. The reaction was terminated by addition of 3.25 ml methanol/chloroform/heptane (10:9:7) and, 1 ml of 0.1 M potassium carbonate and, 0.1 M boric acid (pH 10.5). After centrifugation at 800 g for 20 minutes (min) the radioactivity in 1 ml of the upper phase was determined by liquid scintillation counting in a LS 6500 Multi-Purpose Scintillation Counter from Beckman Coulter Inc. (Fullerton, Calif.).
For determination of lipase activity 0.1 ml of cytosolic extracts and 0.1 ml substrate are incubated in a water bath at 37° C. for 60 min. The reaction is terminated by adding 3.25 ml of methanol/chloroform/heptane (10:9:7) and 1 ml of 0.1 M potassium carbonate, 0.1 M boric acid, pH 10.5. After centrifugation (800 g, 20 min) the radioactivity in 1 ml of the upper phase is determined by liquid scintillation counting. Neutral lipase activity is measured in 50 mM potassium phosphate buffer, pH 7.0 and 2.5% defatted BSA. The substrate for neutral TG lipase activity contained 33 nmol triolein/assay with [9,10-^3H(N)]-triolein (40.000 cpm/nmol, NEN Life Science Products) as radioactive tracer for COS-7 cells and 167 nmol/assay for 3T3-L1 adipocytes (7300 cpm/nmol). The substrates for cholesteryl esterase and retinyl esterase activity contained 10 nmol/assay of cholesteryl oleate or retinyl palmitate and the corresponding tracers cholesteryl [9,10-^3H]-oleate or retinyl [9,10-^3H(N)]-palmitate (50.000 cpm/nmol). For determination of phospholipase activity in cytosolic extracts the substrate contained 20 nmol/assay phosphatidylcholine and [dipalmitoyl-1-^14C]-phosphatidylcholine (12.000 cpm/nmol). […]

inhibition of ATGL (ATGL activity, % control) [4]	SMILES	ATGL inhibition activity [1]	inhibition of iPLA2β [2]	inhibition of iPLA2γ [3]
	O=C1O/C(=C/Br)CC[C@@H]1c1cccc2ccccc12 [(R)-Bromoenol lactone]	ATGL inhibition activity	inhibits	inhibits
largest degree of inhibition	Oc1ccc(/C=N/N2CCN(c3ccccc3)CC2)cc1O [Compound 4]			
inhibit ATGL	CCOC(=O)c1nn(-c2ccc(OCC)cc2)cc1O [Compound 9]			
inhibit ATGL	CN(C)/N=C/c1ccccc1OC(=O)c1cccnc1 [Compound 7]			

SMILES	inhibition of ATGL (ATGL activity, % control) [4]	ATGL inhibition activity [1]	inhibition of iPLA2β [2]	inhibition of iPLA2γ [3]
COC(=O)C(O)(c1cc(C)c(O)c(C)c1)C(F)(F)F (stereo not shown) [Compound 3]	inhibit ATGL			
